From PubChem BioAssay AID588626 (NMMLSC, 2011)
The source made the active and inactive calls.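 How the source made its calls: active means half-effect potency at or under 10 µM with a response span of at least 30% after curve fit checks such as Hill slope 0.5 to 2; inactive means the rest.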

Each compound was assayed against Cell division control protein 42 homolog (Homo sapiens) (UniProt P60953) (assay: inhibitors of wildtype Cdc42 GTP binding, SAR follow-up, biochemical, bead multiplex, flow cytometry, round 2 (AID 588626)). Conditions: Bead-based flow cytometry, Bodipy-FL-GTP binding, EDTA buffer.
Sequence of Cell division control protein 42 homolog (Homo sapiens) (P60953 whole entry, looked up): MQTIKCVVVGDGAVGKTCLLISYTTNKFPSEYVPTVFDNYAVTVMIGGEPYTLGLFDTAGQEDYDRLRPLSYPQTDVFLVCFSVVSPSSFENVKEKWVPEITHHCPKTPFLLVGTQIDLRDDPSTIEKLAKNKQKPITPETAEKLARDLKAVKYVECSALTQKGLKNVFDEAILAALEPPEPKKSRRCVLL

Row | EC50 | Structure (SMILES)
1 | 2.66 µM | Cc1ccccc1C(=O)NC(=S)Nc1sc2c(c1C(=O)O)CC(C)(C)OC2
2 | 17.8 µM | CC1Cc2c(sc(NC(=S)NC(=O)c3ccccc3)c2C(=O)O)CO1 (stereo not drawn)
3 | 1.57 µM | CC(C)(C)C1Cc2c(sc(NC(=S)NC(=O)c3ccccc3)c2C(=O)O)CO1 (stereo not drawn)
4 | 19.5 µM | CC1(C)Cc2c(sc(NC(=S)NC(=O)c3cccc(Br)c3)c2C(=O)O)CO1
5 | 5.87 µM | Cc1cccc(C(=O)NC(=S)Nc2sc3c(c2C(=O)O)CC(C)(C)OC3)c1
6 | 0.528 µM | Cc1ccc(C(=O)NC(=S)Nc2sc3c(c2C(=O)O)CC(C)(C)OC3)cc1

The remaining lines, values behind:

Row | Structure (SMILES) | EC50
7 | CC1(C)Cc2c(sc(NC(=S)NC(=O)c3ccccc3F)c2C(=O)O)CO1 | 7.37 µM
8 | CC1(C)Cc2c(sc(NC(=S)NC(=O)C3CCCCC3)c2C(=O)O)CO1 | 2.64 µM

Same assay, conditions: Bead-based flow cytometry, Bodipy-FL-GTP binding, EDTA buffer; at 100 µM (top of the series)

Row | % response (GTP binding remaining) | Structure (SMILES)
9 | inactive | O=C(NC(=S)Nc1sc2c(c1C(=O)O)CC1(CCCC1)OC2)c1ccccc1
10 | inactive | CCC1(C)Cc2c(sc(NC(=S)NC(=O)c3ccccc3)c2C(=O)O)CO1 (stereo not drawn)
11 | inactive | CC1(C)Cc2c(sc(NC(=S)NC(=O)c3ccccc3Br)c2C(=O)O)CO1
12 | inactive | CC1(C)CCc2sc(NC(=S)NC(=O)c3ccccc3)c(C(=O)O)c2C1
13 | inactive | O=C(NC(=S)Nc1sc2c(c1C(=O)O)CCOC2)c1ccccc1
14 | inactive | CC1(C)Cc2c(sc(NC(=O)NC(=O)c3ccccc3)c2C(=O)O)CO1
15 | inactive | CC1(C)Cc2c(sc(NC(=S)NC(=O)c3cccc(F)c3)c2C(=O)O)CO1

Second part, the compound before the results:

Row | Structure (SMILES) | % response (GTP binding remaining)
16 | COc1ccccc1C(=O)NC(=S)Nc1sc2c(c1C(=O)O)CC(C)(C)OC2 | inactive
17 | CC1(C)Cc2c(sc(NC(=S)NC(=O)c3ccco3)c2C(=O)O)CO1 | inactive
18 | CC1(C)Cc2c(sc(NC(=S)Nc3ccccc3)c2C(=O)O)CO1 | inactive
19 | CC1(C)Cc2c(sc(NC(=S)NC(=O)c3cccs3)c2C(=O)O)CO1 | inactive
20 | CC1(C)Cc2c(sc(NC(=S)NC(=O)c3ccc(F)cc3)c2C(=O)O)CO1 | inactive
21 | CC1(C)Cc2c(sc(NC(=S)NC(=O)c3ccc(Br)cc3)c2C(=O)O)CO1 | inactive
22 | COc1ccc(C(=O)NC(=S)Nc2sc3c(c2C(=O)O)CC(C)(C)OC3)cc1 | inactive
23 | COc1cccc(C(=O)NC(=S)Nc2sc3c(c2C(=O)O)CC(C)(C)OC3)c1 | inactive
